Assay results taken from patent publication US20110092476A1, “Bicycloheteroaryl compounds as P2X7 modulators and uses thereof” (Renovis, Inc., priority 2006, published 2011).

Target: T1, P2X7 receptor (Homo sapiens, UniProt Q99572)
T1 construct: host or cells: THP-1 cells differentiated with LPS and IFN-γ
T1 sequence (Q99572 1-595): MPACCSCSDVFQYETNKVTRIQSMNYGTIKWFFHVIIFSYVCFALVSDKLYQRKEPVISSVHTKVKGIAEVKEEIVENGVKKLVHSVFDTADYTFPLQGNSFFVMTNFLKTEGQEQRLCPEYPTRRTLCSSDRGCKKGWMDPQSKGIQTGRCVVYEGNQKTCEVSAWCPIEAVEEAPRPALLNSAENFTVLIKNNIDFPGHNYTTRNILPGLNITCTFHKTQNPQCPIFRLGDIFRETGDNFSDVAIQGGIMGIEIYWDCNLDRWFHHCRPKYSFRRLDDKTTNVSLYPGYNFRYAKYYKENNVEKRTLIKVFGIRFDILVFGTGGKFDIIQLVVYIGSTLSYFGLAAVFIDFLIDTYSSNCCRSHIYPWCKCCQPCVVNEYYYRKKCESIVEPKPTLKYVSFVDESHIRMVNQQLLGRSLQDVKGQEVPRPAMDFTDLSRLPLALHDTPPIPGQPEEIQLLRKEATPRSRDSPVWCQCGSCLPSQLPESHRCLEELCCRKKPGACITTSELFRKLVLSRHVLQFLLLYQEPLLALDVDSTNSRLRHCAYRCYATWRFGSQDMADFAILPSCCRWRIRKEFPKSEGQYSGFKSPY
Experiment: IL-1β release assay in differentiated THP-1 cells stimulated with BzATP (Example 9)
Assay type: cell-based
Details: 0.1 μM compound; differentiated THP-1 cells, BzATP 250 uM; "*" symbols; read-out: IL-1β % Inhib. @ 0.3 or 0.1 uM
In short: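 IC50 derived by four-parameter logistic fit of percent inhibition of IL-1β release (ELISA, background-adjusted). Release triggered by 45 min BzATP at 250 uM final after 30 min compound pretreatment of THP-1 cells previously differentiated 16 h (LPS, IFN-γ, 100 ng/mL each) and re-primed 2 h with LPS.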

Row | Structure (SMILES) | inhibition at 0.1 µM [%]
1 | Cc1ccccc1CC(=O)Nc1cccc2c(=O)n(CC(C)(C)O)ccc12 [Compound 211] | 0 to 25
2 | COc1cccc(CC(=O)Nc2cccc3c(=O)n(CC(C)(C)O)ccc23)c1 [Compound 212] | 26 to 50
3 | CCOc1ccc(CC(=O)Nc2cccc3c(=O)n(CC(C)(C)O)ccc23)cc1 [Compound 215] | 26 to 50
4 | CC(C)(O)Cn1ccc2c(NC(=O)c3cc4ccccc4o3)cccc2c1=O [Compound 217] | 0 to 25
5 | COc1cc(CC(=O)Nc2cccc3c(=O)n(CC(C)(C)O)ccc23)cc(OC)c1 [Compound 219] | 0 to 25
6 | Cc1ccc(C(=O)Nc2cccc3c(=O)n(CC(C)(C)O)ccc23)cc1Cl [Compound 220] | 26 to 50
7 | Cc1cc(Cl)ccc1C(=O)Nc1cccc2c(=O)n(CC(C)(C)O)ccc12 [Compound 221] | 26 to 50
8 | CC(C)(O)Cn1ccc2c(NC(=O)c3cccc4c3OCCO4)cccc2c1=O [Compound 222] | 0 to 25
9 | CC(C)(O)Cn1ccc2c(NC(=O)c3ccc4c(c3)OCCCO4)cccc2c1=O [Compound 223] | 0 to 25
10 | CC(C)(O)Cn1ccc2c(NC(=O)Cc3csc4ccccc34)cccc2c1=O [Compound 224] | 26 to 50
11 | Cc1c(Cl)cccc1C(=O)Nc1cccc2c(=O)n(CC(C)(C)O)ccc12 [Compound 225] | 0 to 25
12 | Cc1cc(C)cc(CC(=O)Nc2cccc3c(=O)n(CC(C)(C)O)ccc23)c1 [Compound 226] | 0 to 25
13 | COc1ccc(C(=O)Nc2cccc3c(=O)n(CC(C)(C)O)ccc23)cc1C [Compound 227] | 0 to 25

Continued, values first:

Row | inhibition at 0.1 µM [%] | Structure (SMILES)
14 | 0 to 25 | Cc1cccc(CC(=O)Nc2cccc3c(=O)n(CC(C)(C)O)ccc23)c1 [Compound 213]
15 | 0 to 25 | COc1ccc(CC(=O)Nc2cccc3c(=O)n(CC(C)(C)O)ccc23)cc1 [Compound 214]
16 | 0 to 25 | Cc1ccc(CC(=O)Nc2cccc3c(=O)n(CC(C)(C)O)ccc23)cc1 [Compound 216]
17 | 0 to 25 | CC(C)(O)Cn1ccc2c(NC(=O)Cc3ccc4c(c3)OCO4)cccc2c1=O [Compound 218]

Same assay, conditions: 0.3 μM compound; differentiated THP-1 cells, BzATP 250 uM; "+" symbols; read-out: IL-1β % Inhib. @ 0.3 or 0.1 uM

Row | Structure (SMILES) | inhibition at 0.3 µM [%]
18 | CC(C(=O)Nc1cccc2c(=O)n(C(CO)CO)ccc12)c1ccc(Cl)cc1 (stereo not drawn) [Compound 231] | 26 to 50
19 | O=C(Cc1ccc(C(F)(F)F)cc1C(F)(F)F)Nc1cccc2c(=O)n(C(CO)CO)ccc12 [Compound 233] | 26 to 50
20 | CC(C(=O)Nc1cccc2c(=O)n([C@@H](C)C(N)=O)ccc12)c1ccc(Cl)cc1 (stereo partly drawn) [Compound 240] | > 76
21 | CC(C(=O)Nc1cccc2c(=O)n(C[C@H]3CCCN3)ccc12)c1ccc(Cl)cc1 (stereo partly drawn) [Compound 242] | 26 to 50
22 | CC(C(=O)Nc1cccc2c(=O)n(CCO)ccc12)c1ccc(Cl)cc1 (stereo not drawn) [Compound 244] | 26 to 50
23 | CC(C(=O)Nc1cccc2c(=O)n(C[C@@H]3CCCN3)ccc12)c1ccc(Cl)cc1 (stereo partly drawn) [Compound 246] | 51 to 75
24 | O=C(Cc1ccc(Cl)c(Cl)c1)Nc1c(Cl)ccc2c(=O)n(CCO)ccc12 [Compound 248] | 0 to 25
25 | CC(C(=O)Nc1cccc2c(=O)n([C@H](CO)C(N)=O)ccc12)c1ccc(Cl)cc1 (stereo partly drawn) [Compound 252, (R)-2-{5-[2-(4-Chloro-phenyl)-propionylamino]-1-oxo-1H-isoquinolin-2-yl}-3-hydroxy-propionamide] | 51 to 75
26 | C[C@H](C(N)=O)n1ccc2c(NC(=O)Cc3cccc(Cl)c3)cccc2c1=O [Compound 255] | > 76
27 | C[C@H](C(N)=O)n1ccc2c(NC(=O)Cc3ccccc3Cl)cccc2c1=O [Compound 260] | 0 to 25
28 | CNC(=O)[C@@H](CO)n1ccc2c(NC(=O)C(C)c3ccc(Cl)cc3)cccc2c1=O (stereo partly drawn) [Compound 261] | 51 to 75
29 | C[C@H](C(N)=O)n1ccc2c(NC(=O)C(C)(C)c3ccc(Cl)cc3)cccc2c1=O [Compound 264] | 26 to 50
30 | CNC(=O)[C@@H](CO)n1ccc2c(NC(=O)C(C)c3ccc(Cl)c(Cl)c3)cccc2c1=O (stereo partly drawn) [Compound 270, (R)-2-{5-[2-(3,4-Dichloro-phenyl)-propionylamino]-1-oxo-1H-isoquinolin-2-yl}-3-hydroxy-N-methyl-propionamide] | > 76
31 | CC(C)C[C@H](CO)n1ccc2c(NC(=O)[C@@H](C)c3ccc(Cl)cc3)cccc2c1=O [Compound 271] | > 76
32 | C[C@H](C(N)=O)n1ccc2c(NC(=O)c3cccc4ncccc34)cccc2c1=O [Compound 272] | 0 to 25
33 | CC(C)[C@H](CO)n1ccc2c(NC(=O)[C@H](C)c3ccc(Cl)cc3)cccc2c1=O [Compound 273, (R)-2-(4-Chloro-phenyl)-N—[(R)-2-(1-hydroxymethyl-2-methyl-propyl)-1-oxo-1,2-dihydro-isoquinolin-5-yl]-propionamide] | > 76
34 | CC(C)[C@H](CO)n1ccc2c(NC(=O)[C@@H](C)c3ccc(Cl)cc3)cccc2c1=O [Compound 274] | > 76
35 | CNC(=O)[C@@H](C(C)C)n1ccc2c(NC(=O)[C@@H](C)c3ccc(Cl)cc3)cccc2c1=O [Compound 276, (R)-2-{5-[(S)-2-(4-Chloro-phenyl)-propionylamino]-1-oxo-1H-isoquinolin-2-yl}-3,N-dimethyl-butyramide] | > 76
36 | CNC(=O)[C@@H](C(C)C)n1ccc2c(NC(=O)[C@H](C)c3ccc(Cl)cc3)cccc2c1=O [Compound 277] | > 76
37 | C[C@H](C(=O)Nc1cccc2c(=O)n([C@@H](C(N)=O)c3ccccc3)ccc12)c1ccc(Cl)c(Cl)c1 [Compound 278, (S)—N-[2-((R)-Carbamoyl-phenyl-methyl)-1-oxo-1,2-dihydro-isoquinolin-5-yl]-2-(3,4-dichloro-phenyl)-propionamide] | > 76
38 | C[C@H](C(=O)Nc1cccc2c(=O)n([C@@H](C(N)=O)c3ccccc3)ccc12)c1ccc(Cl)cc1 [Compound 279, (S)—N-[2-((R)-Carbamoyl-phenyl-methyl)-1-oxo-1,2-dihydro-isoquinolin-5-yl]-2-(4-chloro-phenyl)-propionamide] | > 76

Further lines, results first:

Row | inhibition at 0.3 µM [%] | Structure (SMILES)
39 | 51 to 75 | O=C(Cc1ccc(Cl)cc1C(F)(F)F)Nc1cccc2c(=O)n(C(CO)CO)ccc12 [Compound 228]
40 | 51 to 75 | O=C(Cc1ccc(Cl)cc1C(F)(F)F)Nc1cccc2c(=O)n(CCO)ccc12 [Compound 229]
41 | > 76 | O=C(Cc1ccc(C(F)(F)F)cc1C(F)(F)F)Nc1cccc2c(=O)n(CCO)ccc12 [Compound 230]
42 | 51 to 75 | CNCCn1ccc2c(NC(=O)Cc3ccc(Cl)c(Cl)c3)cccc2c1=O [Compound 234]
43 | > 76 | CNCCn1ccc2c(NC(=O)Cc3ccc(Cl)c(C(F)(F)F)c3)cccc2c1=O [Compound 235, 2-(4-Chloro-3-trifluoromethyl-phenyl)-N-[2-(2-methylamino-ethyl)-1-oxo-1,2-dihydro-isoquinolin-5-yl]-acetamide]
44 | > 76 | C[C@H](C(N)=O)n1ccc2c(NC(=O)Cc3ccc(Cl)c(Cl)c3)cccc2c1=O [Compound 239]
45 | > 76 | C[C@H](C(N)=O)n1ccc2c(NC(=O)Cc3ccc(Cl)cc3C(F)(F)F)cccc2c1=O [Compound 241]
46 | > 76 | O=C(Cc1ccc(Cl)c(C(F)(F)F)c1)Nc1cccc2c(=O)n(C[C@H]3CCCN3)ccc12 [Compound 243]
47 | > 76 | O=C(Cc1ccc(Cl)c(Cl)c1)Nc1cccc2c(=O)n(C[C@H]3CCCN3)ccc12 [Compound 245]
48 | > 76 | CC(C(=O)Nc1cccc2c(=O)n(CCO)ccc12)c1ccc(Cl)c(C(F)(F)F)c1 (stereo not drawn) [Compound 251]
49 | 26 to 50 | NC(=O)[C@H](CO)n1ccc2c(NC(=O)Cc3ccc(Cl)c(Cl)c3)cccc2c1=O [Compound 253]
50 | > 76 | O=C(Cc1ccc(Cl)c(C(F)(F)F)c1)Nc1cccc2c(=O)n(CC3CCNCC3)ccc12 [Compound 257, 2-(4-Chloro-3-trifluoromethyl-phenyl)-N-(1-oxo-2-piperidin-4-ylmethyl-1,2-dihydro-isoquinolin-5-yl)-acetamide]
51 | > 76 | NCC(CCl)Cn1ccc2c(NC(=O)Cc3ccc(Cl)c(C(F)(F)F)c3)cccc2c1=O (stereo not drawn) [Compound 258, N-[2-(3-Amino-2-chloromethyl-propyl)-1-oxo-1,2-dihydro-isoquinolin-5-yl]-2-(4-chloro-3-trifluoromethyl-phenyl)-acetamide]
52 | 51 to 75 | NCC(CCl)Cn1ccc2c(NC(=O)Cc3ccc(Cl)c(Cl)c3)cccc2c1=O (stereo not drawn) [Compound 259]
53 | > 76 | CC(C)C[C@H](CO)n1ccc2c(NC(=O)Cc3ccc(Cl)c(Cl)c3)cccc2c1=O [Compound 275]
54 | > 76 | CC(C)C[C@H](CO)n1ccc2c(NC(=O)Cc3ccc(Cl)c(C(F)(F)F)c3)cccc2c1=O [Compound 280]

Same assay, conditions: THP-1 cells, BzATP 250 uM, IL-1β by ELISA

Row | IC50 [µM] | Structure (SMILES)
55 | 0.356 | CC(C(=O)Nc1cccc2c(=O)n(C[C@H]3CCCN3)ccc12)c1ccc(Cl)cc1 (stereo partly drawn) [Compound 242]
56 | 0.443 | C[C@H](C(N)=O)n1ccc2c(NC(=O)C(C)(C)c3ccc(Cl)cc3)cccc2c1=O [Compound 264]
57 | 0.0145 | CC(C)[C@H](CO)n1ccc2c(NC(=O)[C@@H](C)c3ccc(Cl)cc3)cccc2c1=O [Compound 274]
